Source: PMC3206814, “Stereo-Selectivity of Human Serum Albumin to Enantiomeric and Isoelectronic Pollutants Dissected by Spectroscopy, Calorimetry and Bioinformatics” (PLoS ONE, 2011)

Legend:
[1] = molecular target: T1, human serum albumin (HSA) (Homo sapiens, UniProt P02768); assay: isothermal titration calorimetry, two-site sequential model; type: binding; conditions: read-out: Kb(M^-1) (converted)
T1 construct: gene ALB; commercial, essentially fatty acid free, full-length mature monomer of 585 residues, dialyzed, used without further purification
Source text: isothermal titration calorimetry, two-site sequential model on human serum albumin (HSA)

[2] = molecular target: T1, human serum albumin (HSA); assay: UV absorption titration at […] nm, […]/dA vs […]/[S] plot; type: binding

T1 sequence (P02768 25-609): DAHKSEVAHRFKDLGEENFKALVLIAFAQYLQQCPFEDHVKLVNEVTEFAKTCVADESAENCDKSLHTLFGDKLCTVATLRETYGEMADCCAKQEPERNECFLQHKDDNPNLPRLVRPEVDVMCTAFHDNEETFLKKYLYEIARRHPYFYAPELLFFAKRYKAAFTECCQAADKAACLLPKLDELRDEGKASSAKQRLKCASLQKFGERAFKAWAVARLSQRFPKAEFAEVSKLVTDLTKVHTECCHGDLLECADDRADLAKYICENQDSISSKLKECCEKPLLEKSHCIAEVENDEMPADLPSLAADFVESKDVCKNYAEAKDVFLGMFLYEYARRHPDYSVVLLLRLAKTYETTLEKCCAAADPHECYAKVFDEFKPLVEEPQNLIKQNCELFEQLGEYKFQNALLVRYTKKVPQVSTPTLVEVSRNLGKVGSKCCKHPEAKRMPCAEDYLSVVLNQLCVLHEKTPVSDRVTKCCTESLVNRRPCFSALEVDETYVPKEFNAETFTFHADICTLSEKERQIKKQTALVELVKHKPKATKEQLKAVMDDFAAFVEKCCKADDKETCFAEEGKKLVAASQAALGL

**Q.** `Oc1ccc2ccccc2c1` [2N, naphthalen–2–ol] was tested. Which Kd [1] did it give?
**A.** 25.3 µM

**Q.** What about the Kd [2] of the same molecule?
**A.** 66.9 µM
